Consider one compound from patent publication US20260345595A1, “NOVEL FLUORENE DERIVATIVE COMPOUND AND USE THEREOF” (JD BIOSCIENCE INC., priority 2022, published 2026).

For series [1], the system named is DSS-induced colitis in C57BL6J JmcSlc mice. The experiment in a line: DSS colitis, inflammatory bowel disease animal model. Type of series: in vivo, mouse. As to conditions: for colonic epithelial cell recovery (H&E): FIG. 6A. As to the method:
Colitis was induced in 8-week-old male C57BL6J JmcSlc mice by feeding 3.5% dextran sodium sulfate (DSS) ad libitum for 9 days, and then replacing the same with normal drinking water. The vehicle and Compound 1 (0.5 mg/kg or 1 mg/kg) were orally administered to the experimental animal model prepared as described above daily from 2 days before DSS drinking until the end of drinking. In order to determine the degree of colonic inflammation, the degree of longitudinal contraction of the isolated colon was measured, and the histological scores were confirmed through H&E staining, which is shown in FIG. 6. Furthermore, total RNA was isolated from the isolated colon, cDNA was synthesized, and the expression levels of representative cytokines (IFNγ, IL-1β, IL-4, IL-6, IL-10, IL-12β, IL-17α, and TNFα) were measured and compared using qPCR, and the results are shown in FIG. 7.

Series [2] relates to bone marrow-derived dendritic cells (BMDCs). The experiment in a line: IL-1β release (inflammasome formation) in LPS/ATP-stimulated bone marrow-derived dendritic cells, ELISA. Type of series: cell-based, C57BL6 mice. As to conditions: versus vehicle control. As to the method: Furthermore, to verify the anti-inflammatory effect at a cellular level, bone marrow cells of C57BL6 mice were treated with 20 ng/ml of GM-CSF and IL-4, and 6 days later, bone marrow-derived dendritic cells (BMDCs) were collected. The BMDCs were prepared at 1×10^6 cells/mL and stabilized for one day, and then subsequent experiments were conducted. The above dendritic cells were treated with 500 ng/ml of LPS for 3 hours to prime pro-IL1B, and then treated with Compound 1 (0 μM, 0.01 µM, 0.1 μM, 1 μM, and 10 μM) for 15 minutes. Next, 5 mM of ATP was treated, which induces inflammasome formation by converting pro-IL1B to IL-1B through pro-IL1B cleavage, and 30 minutes later, the concentration of IL-1B in the supernatant was measured by ELISA, and the results are shown in FIG. 10 and Table 3.
For orientation: An ELISA detects its analyte on a solid surface through an enzyme-linked reagent.

For series [3], the system named is Mfn2−/− MEF cells. The series is described as follows: Mitochondrial oxygen consumption rate, Charcot-Marie-Tooth disease model. Conditions: 1 μM, 24 hours, FIG. 13. Type of series: cell-based, mouse. As to the method: To verify the functional loss due to mutation of MFN2 present in the outer mitochondrial membrane, which is the main cause of Charcot-Marie-Tooth disease, the mitochondrial oxygen consumption rate (OCR) was measured. In detail, Mfn2^+/^+MEF cells (normal cells), which are mouse embryonic fibroblasts expressing Mfn2, and Mfn2/MEF cells not expressing Mfn2 were cultured at a density of 1×10^4 for 24 hours in a Seahorse […] culture dish using a DMEM medium supplemented with 10% FBS and penicillin/streptomycin. The cells were treated with DMSO as a vehicle and Compound 1 (1 μM) and cultured for another 24 hours. The mitochondrial oxygen consumption rate was measured using a Seahorse XFe96 analyzer (Agilent Technologies), and the results are shown in FIG. 13.

In series [4] the test system is cancer cells. The experiment in a line: Growth inhibition of cancer cells, Cell Counting Kit-8. As to conditions: 24 hours, 0.5% FBS; FIGS. 16 to 20. Type of series: cell-based. As to the method:
In order to verify the growth inhibitory effect of Compound 1 on various normal and cancer cell lines, 25 types of cell lines listed in Table 7 below were tested. In detail, each cell was seeded at a density of 2×10^4 cells/well in a 96-well plate and cultured for 24 hours, and then the medium was replaced with a medium comprising 0.5% (for cancer cells) or 10% (for normal cells) FBS, and Compound 1 was treated at various concentrations. 24 hours later, 10 μL of Cell Counting Kit-8 (Dojindo Molecular Technologies) was added, and 1 hour later, absorbance at 480 nm was measured using a microplate reader (TECAN SPARK), and the results are shown in FIGS. 15 to 21.
In general terms: Tetrazolium assays rely on reduction of a dye to a coloured formazan, in cell work by metabolically active cells.

Series [5] concerns HCT-116 colorectal cancer. The experiment in a line: HCT-116 colorectal cancer tumor model. Type of series: in vivo, nude mice. As to conditions: 0.5 and 1.0 mg/kg. As to the method:
A colorectal cancer model was established by subcutaneously transplanting HCT-116 colorectal cancer cell line into nude mice. The colorectal cancer model was divided into the following three groups: Group 1 was administered a vehicle as a control group, Group 2 was administered 0.5 mg/kg of Compound 1, and Group 3 was administered 1.0 mg/kg of Compound 1. The drug was orally administered once a day for a total of 21 times. To evaluate the therapeutic efficacy, the tumor size was measured before drug administration and on days 3, 7, 10, 14, 17, 21, and 24 after drug administration. The tumor size was calculated as follows:
Tumor size (mm^3)=(A×B^2)/2 • wherein A and B represent the tumor long axis and short axis, respectively.
In addition, the body weight was measured before drug administration and on days 7, 14, and 21 after drug administration.

Setting [6] is: colon tissue, qPCR, versus vehicle, FIG. 7.

Take `CC(C(=O)NNc1ccc(F)cc1)n1cc(-c2cc(F)cc3c2-c2ccccc2C3(O)C(F)(F)F)cn1` (centres unmarked) [Compound 1, 2-(4-(2-fluoro-9-hydroxy-9-(trifluoromethyl)-9H-fluoren-4-yl)-1H-pyrazol-1-yl)-N′-(4-fluorophenyl)propanehydrazide]: the “longitudinal contraction of colon” value in series [1] (0.5 mg/kg and 1 mg/kg, oral daily, versus vehicle, FIGS. 6C and 6D) was “the contraction was alleviated both in the group administered 0.5 mg/kg of Compound 1 and in the group administered 1 mg/kg of Compound 1, as compared to the vehicle administration group, and the effect increased as the administration amount increased”. Moreover, in series [1] (0.5 mg/kg, oral daily), the “colonic epithelial cell recovery (H&E)” value is “the recovery was slight”. Besides, in series [1] (1 mg/kg, oral daily), the “colonic epithelial cell recovery (H&E)” value is on record as “remarkable epithelial cell recovery”. The “tissue (histological) score” value in series [1] (1 mg/kg, oral daily, FIG. 6B) is “the lowest score”. In addition, in series [1] (setting [6]), the “IFNγ mRNA expression” value is on record as “significantly reduced”, the “IL-4 mRNA expression” value was “increased”, the “IL-6 mRNA expression” value is recorded as “significantly reduced” and the “IL-12b mRNA expression” value is given as “significantly reduced”. In series [1] (setting [6]), the “IL-17a mRNA expression” value is “significantly reduced” and the “TNFα mRNA expression” value is “significantly reduced”. The inhibition (in general, the change of the read-out against control, counted positive when it falls) at 0.1 µM in series [2] (Mus musculus, BMDC, 0.1 µM, read-out: inhibition of IL-1β expression) was approximately 83.8%. For the same compound, the inhibition at 10 µM in series [2] (Mus musculus, BMDC, 10 µM, read-out: inhibition of IL-1β expression) was approximately 53.8%. Also, the “inhibition of IL-1β expression (in words)” value in series [2] (FIG. 10) is “significantly inhibited”. In series [3], the “mitochondrial oxygen consumption rate (OCR)” value is “markedly restored to a level comparable to that of normal cells”. In addition, the “viability of cancer cells (in words)” value in series [4] was “decreased the viability of cancer cells in a concentration-dependent manner”. Besides, the body weight change result in series [5] (oral once a day, 21 times) was “no significant body weight change”. The “tumor growth (in words)” value in series [5] (oral, p<0.05 versus vehicle, FIG. 21) is listed as “statistically significant concentration-dependent tumor growth inhibitory effect”.
